Here are results for 4 compounds from patent US20250290915A1, “METHOD FOR PREDICTING RESPONSIVENESS TO THERAPY” (CANCERTAIN LIMITED, priority 2022, published 2025).

The test system of experiment [1] is Circulating Tumour Cells (CTCs) from a patient with sex cord stromal tumour, ovarian tumour. In words: Drug response score assay on CTCs from blood, Example 4. The experiment is classed as cell-based, human. Also noted: key to Drug response score, conc. 1 / Drug response score, conc. 2 / Drug response score, conc. 3 / Drug response score, conc. 4: normalized drug response metric (Gupta et al. 2020). Particulars: for Drug response score, conc. 1: conc. 1: Cyclo 2.5 μg/ml, Vinc 10 ng/ml, Etop 1 μg/ml, Bini 100 ng/ml, Doxo 10 ng/ml; for Drug response score, conc. 1 / Drug response score, conc. 2 / Drug response score, conc. 3 / Drug response score, conc. 4: CTCs, t96h; for Drug response score, conc. 2: conc. 2: Cyclo 10 μg/ml, Vinc 20 ng/ml, Etop 4 μg/ml, Bini 200 ng/ml, Doxo 30 ng/ml; for Drug response score, conc. 3: conc. 3: Cyclo 40 μg/ml, Vinc 40 ng/ml, Etop 20 μg/ml, Bini 400 ng/ml, Doxo 90 ng/ml; for Drug response score, conc. 4: conc. 4: Cyclo 160 μg/ml, Vinc 80 ng/ml, Etop 100 μg/ml, Bini 800 ng/ml, Doxo 270 ng/ml; for effectiveness on Circulating Tumour Cells (CTCs) under laboratory conditions / Drug sensitivity as calculated by the assay (interpretation of Drug Response Scores): sex cord stromal / ovarian tumour CTCs; for Drug sensitivity as calculated by the assay (interpretation of Drug Response Scores): Table 14. As for the experimental part: CD45^+ cells and circulating tumour cells (CTCs) were isolated from a blood sample provided by each subject.
CD45 separation was performed by adding human CD45 microbeads (50 μl/ml blood), incubating for 15 minutes at 4° C. and then processing using an AutoMACS machine. This separates the blood sample into CD45^+ and CD45^−cells in 2 separate falcons. The falcon tubes are then centrifuged at 1200 rpm for 5 minutes.
The supernatant was removed from the CD45^−falcon tube, and the CD45^−cells contacted with 100 μl of FcR block and 100 μl of CD326 (EpCAM) MicroBeads, followed by incubation at […] 4° C. for 30 minutes. The CD45^−cells were then processed using an AutoMACS machine to separate the EpCAM positive and negative cells into 2 separate falcon tubes. The EpCAM-cells were discarded. The supernatant was removed from the EpCAM^+ cells, and the cells resuspended in DMEM with 2 μl Cell Tox, 2 μl MT and 2 μl MT. 20 μl of the resuspended pellet was then added to all sample wells excluding a blank. After all wells are added to, a cell count was conducted on the […] to determine the number of circulating tumour cells (CTCs).
(§1) The different cell types were each divided equally into populations, depending on the number of drugs/concentrations to be tested and plated on a cell-culture plate pre-coated with a scaffold of polycaprolactone (PCL) electrospun fibres and incubated at 37° C., 5% CO2, for 5 to (typically 10) minutes to facilitate cell attachment. After attachment, an initial imaging step was carried out using the RealTime-Glo™ MT assay from Promega (Catalogue No. G9711)) and the CellTox™ Green Cytotoxicity Assay (Promega, Catalogue No. G8741), carried out according to manufacturer's instructions. Following this initial imagining, the immunotherapeutic and/or chemotherapeutic agents were added to the cell populations as indicated below. After 10 minutes, the imagining step was repeated. The cell populations were then incubated at 37° C., 5% CO2 for 48 hours. The imaging step was then repeated. The cell populations were then re-dosed with the same immunotherapeutic and/or chemotherapeutic agents as indicated below, and incubated at 37° C., 5% CO2 for a further 48 hours. After this second 48 hour incubation, the imagining step was repeated for a final time.
At the end of this culture period, dose response scores were calculated using a normalized drug response metric as described in Gupta et al. (Communications Biology volume 3, Article number: 42 (2020), https://doi.org/10.1038/s42003-020-0765-z). The start readout for a given immunotherapeutic or chemotherapeutic agent at a given concentration was the to readout for said immunotherapeutic or chemotherapeutic agent at a specified concentration. The end readout for a given immunotherapeutic or chemotherapeutic agent at a given concentration was the final timepoint reading (t96h) for said immunotherapeutic or chemotherapeutic agent at a specified concentration.
The positive control start readout for a given drug/concentration was the to readout for the corresponding drug at a specified concentration. The positive control end readout for the corresponding drug at a specified concentration was the final timepoint reading (t96h) for the corresponding blank well.
The negative control start and end readouts for a given immunotherapeutic or chemotherapeutic agent at a given concentration were the to and final timepoint reading (t96h) respectively for blank cell or blank immuno cell well respectively.
The sensitivity or resistance of a subject's cancer to a given immunotherapeutic or chemotherapeutic agent was determined based on the calculated drug response score as shown in Table 2.
Blood samples from a patient with sex cord stromal tumour, ovarian tumour (epitheliod neoplasm, stage 3 recurrence after surgery (resection) and previous chemotherapy) were received on 19 Jul. 2021 and tested using a 5 drug panel. […]

Experiment [2] has as its system cancer cells derived from the tissue sample of a patient with osteosarcoma. Nature of the experiment: Drug response score assay on tissue sample, Example 10. The experiment is classed as cell-based, human. Also noted: key to Drug response score, conc. 1 / Drug response score, conc. 2 / Drug response score, conc. 3 / Drug response score, conc. 4: normalized drug response metric per Gupta et al. 2020. The following applies: for effectiveness on the cancer cells derived from the tissue sample under laboratory conditions / Drug sensitivity as calculated by the assay (interpretation of Drug Response Scores): osteosarcoma tissue sample; for Drug sensitivity as calculated by the assay (interpretation of Drug Response Scores): Table 33; for Drug response score, conc. 1 / Drug response score, conc. 2 / Drug response score, conc. 3 / Drug response score, conc. 4: tissue sample; for Drug response score, conc. 1: conc. 1 per Table 31: Etop 1, DTIC 1.5, Ifos 0.125, Doce 0.02, Irinotecan 5 μg/ml; for Drug response score, conc. 2: conc. 2 per Table 31: Etop 4, DTIC 3, Ifos 0.25, Doce 0.2, Irinotecan 10 μg/ml; for Drug response score, conc. 3: conc. 3 per Table 31: Etop 20, DTIC 6, Ifos 5, Doce 2, Irinotecan 25 μg/ml; for Drug response score, conc. 4: conc. 4 per Table 31: Etop 100, DTIC 12, Ifos 10, Doce 10, Irinotecan 50 μg/ml. The method, then:
Where a tissue sample was provided by each subject, cancer stem cells (CSCs, CD133^+), were isolated from said sample. Tumour marker cells were further isolated from each tissue sample. The remaining cells were designated tumour marker^+ cells.
First, disaggregation of the tissue samples was carried out. Disaggregation was dependent on the size of the tissue sample and the method of retrieval: • EBUS (Endobronchial Ultrasound Scan and Biopsy)—very small fragments of tissue in solution-spun at 1200 rpm for 5 minutes to collect tissue pellet • Bronchoscopy-larger fragments with larger amount of blood vessels • Broncho-lavage-similar to EBUS, spun at 1200 rpm for 5 minutes to collet tissue pellet
Once a pellet of tissue obtained, DMEM added to the tissue pellet and the material forced through a […] Smart strainer. Once a cell suspension was achieved, this was spun at 1200 rpm for 5 minutes and the supernatant removed. The cells were then resuspended to a volume of 60 μl.
20 μl of FcR block and 20 μl of CD133 microbeads were added to the resuspended cells, followed by incubation for 15 minutes at 4° C. The cells were then processed using an AutoMACS machine. This separates the […] into CD133^+ and CD133^− cells in 2 separate falcons. The falcon tubes are then centrifuged at 1200 rpm for 5 minutes.
The supernatant was removed from the CD133+falcon tube, and the cells resuspended in DMEM with 2 μl Cell Tox, 2 μl MT and 2 μl MT. 20 μl of the resuspended […] was then plated in each well which will contain an immunotherapy treatment.
The supernatant was removed from the CD133^− falcon tube, and the CD133^− cells contacted with 40 μl of a tumour separation microbeads cocktail containing microbeads bound to anti-CD31, anti-CD45, anti-Glycophorin-A (Gly-A) and an anti-fibroblast antibody.
This cocktail is used to separate out tumour marker cells using MACS, by separating out CD31^+, CD45^+ and Gly-A^+ cells. In addition, anti-fibroblast antibody-labelled beads are also used. The cocktail is added to the CD133^− falcon tube, followed by incubation for 15 minutes at 4° C. MACS is carried out using an AutoMACS machine. This cells which are not bound by the CD31, CD45, Gly-A and anti-fibroblast antibody beads are the tumour marker^+ cells.
as §1
At the end of this culture period, dose response scores were calculated using a normalized drug response metric as described in Gupta et al. (Communications Biology volume 3, Article number: 42 (2020), https://doi.org/10.1038/s42003-020-0765-z). The start readout for a given immunotherapeutic or chemotherapeutic agent at a given concentration was the to readout for said immunotherapeutic or chemotherapeutic agent at a specified concentration. […]

For `COc1cccc2c1C(=O)c1c(O)c3c(c(O)c1C2=O)C[C@@](O)(C(=O)CO)C[C@@H]3O[C@H]1C[C@H](N)[C@H](O)[C@H](C)O1` [Doxorubicin], in experiment [1], the “Drug response score, conc. 1” value is given as 0.68; the “Drug response score, conc. 2” value is on record as 0.93; the “Drug response score, conc. 3” value was 0.54; the “Drug response score, conc. 4” value was 0.93. In addition, in experiment [1], the “effectiveness on Circulating Tumour Cells (CTCs) under laboratory conditions” value is given as “show effectiveness” and the “Drug sensitivity as calculated by the assay (interpretation of Drug Response Scores)” value (“Drug sensitivity as calculated” below) is “Sensitive (S++)”.
On to `O=P1(NCCCl)OCCCN1CCCl` (stereo not drawn) [Ifosfamide], for which, in experiment [2], the “effectiveness on the cancer cells derived from the tissue sample under laboratory conditions” value was “show effectiveness”; the “Drug sensitivity as calculated” value is given as “Sensitive (S+)”; the “Drug response score, conc. 1” value came out at 0.3183; the “Drug response score, conc. 2” value is listed as 0.8776. Also, in experiment [2], the “Drug response score, conc. 3” value was determined as 0.1237 and the “Drug response score, conc. 4” value is given as −0.8671.
Regarding `CC(=O)O[C@@]12CO[C@@H]1C[C@H](O)[C@@]1(C)C(=O)[C@H](O)C3=C(C)[C@@H](OC(=O)[C@H](O)[C@@H](NC(=O)OC(C)(C)C)c4ccccc4)C[C@@](O)([C@@H](OC(=O)c4ccccc4)[C@H]21)C3(C)C` [Docetaxel], in experiment [2], the “effectiveness on the cancer cells derived from the tissue sample under laboratory conditions” value is listed as “resistant”; the “Drug sensitivity as calculated” value was “Resistant”; the “Drug response score, conc. 1” value is listed as −0.5113; the “Drug response score, conc. 2” value is 1.0268. In addition, in experiment [2], the “Drug response score, conc. 3” value turned out to be 0.6693 and the “Drug response score, conc. 4” value is −0.6056.
Take `COc1cc([C@@H]2c3cc4c(cc3[C@@H](O[C@@H]3O[C@@H]5CO[C@@H](C)O[C@H]5[C@H](O)[C@H]3O)[C@H]3COC(=O)[C@H]23)OCO4)cc(OC)c1O` [Etoposide]: in experiment [2], the “effectiveness on the cancer cells derived from the tissue sample under laboratory conditions” value is given as “show effectiveness”; the “Drug sensitivity as calculated” value is recorded as “Sensitive (S+)”; the “Drug response score, conc. 1” value is 0.4829; the “Drug response score, conc. 2” value was determined as 0.0653. Besides, in experiment [2], the “Drug response score, conc. 3” value is −0.4472 and the “Drug response score, conc. 4” value stood at 0.0955. Also, in experiment [1], the “Drug response score, conc. 1” value is 0.79; the “Drug response score, conc. 2” value is on record as 1.06; the “Drug response score, conc. 3” value is on record as 1.19; the “Drug response score, conc. 4” value is 1.35. Moreover, in experiment [1], the “effectiveness on Circulating Tumour Cells (CTCs) under laboratory conditions” value is given as “not effective” and the “Drug sensitivity as calculated” value was “Resistant”.
